The target in data set [1] is T1, MtbCBS (Mycobacterium tuberculosis cystathionine β-synthase) (Mycobacterium tuberculosis, UniProt P9WP51).
T1 sequence (P9WP51 1-464): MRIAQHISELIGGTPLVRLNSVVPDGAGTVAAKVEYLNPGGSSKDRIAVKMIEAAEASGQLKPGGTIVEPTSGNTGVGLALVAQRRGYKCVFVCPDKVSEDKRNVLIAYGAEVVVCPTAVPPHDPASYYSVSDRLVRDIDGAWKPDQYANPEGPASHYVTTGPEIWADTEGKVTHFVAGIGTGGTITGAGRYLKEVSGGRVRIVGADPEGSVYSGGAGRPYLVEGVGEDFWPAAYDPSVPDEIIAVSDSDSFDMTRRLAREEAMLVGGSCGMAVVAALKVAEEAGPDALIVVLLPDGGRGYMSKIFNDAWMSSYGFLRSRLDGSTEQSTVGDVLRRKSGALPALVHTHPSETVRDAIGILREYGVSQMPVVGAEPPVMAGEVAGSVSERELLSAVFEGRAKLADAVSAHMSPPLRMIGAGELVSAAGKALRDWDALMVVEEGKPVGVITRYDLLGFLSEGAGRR
The data set is described as follows: fluorescence of PLP aldimine. In kind it is biochemical.

Substrate in the data set “purified protein”: N[C@@H](CS)C(=O)O
The experiment in a line: purified protein. The note with it: pH 7.5; 25.0 °C.

What is called IC50 is the midpoint of a concentration-inhibition curve. A high value points to lower potency. As for `NOCC(=O)O` [AOAA], the IC50 in data set [1] was ~100 µM.

B1: MtbCBS (Mycobacterium tuberculosis cystathionine β-synthase) (Mycobacterium tuberculosis H37Rv) (protein)
chain: T1 sequence (P9WP51 1-464)
One may read the Km as the concentration of substrate that gives half-maximal velocity. For B1, in “purified protein”, the Km was found to be 15.47 mM.

(Values after article doi:10.1101/2025.07.03.662948v1 (biorxiv, 2025).)
